As usually defined, the IC50 is the concentration at which inhibition is half-maximal. Low readings indicate higher potency, high ones lower potency.

For two molecules, IC50 results are on record in US8754233B2, “Pyrazolylbenzothiazole derivatives and their use as therapeutic agents” (Dermira (Canada), Inc., priority 2002, dated 2014).

Structures are written as SMILES. Where only a bound is given, the exact number is not on record here.

Assay [1] concerns ConA 1° splenocytes. In words: Survival of ConA 1° splenocytes (cytotoxicity by MTS staining). The assay is classed as cell-based, mouse. The note with it: ConA-stimulated splenocytes.
The subject of assay [2] is MCP1 on HUVECS. In words: Inhibition of MCP-1 release from TNFα-stimulated HUVEC. The assay is classed as cell-based, human. As to conditions: 18-24 hours, ELISA. The source says: The activation of endothelial cells by pro-inflammatory cytokine TNF-α leads to the production of several chemokines. The release of these chemokines play an important role in leukocyte trafficking and extravasation of leukocytes into tissue during inflammation. MCP-1 and IL-8 are among the chemokines released upon stimulation of human endothelial cells (HUVECs) by TNFα, and contribute to migration of monocytes to the sites of inflammation. Cells should not be passaged more than 6 times.
Cells were maintained and grown in tissue culture flasks (T75) in endothelial cell growth medium (EGM, Clonetics) containing 5 additional supplements (EGM-5) in medium [human recombinant endothelial growth factor (hEGF), hydrocortisone (HC), bovine brain extract (BBE), fetal bovine serum (FBS) and Gentamycin (GA)] incubated at 37° C., 5% CO2. The cells should be propagated a maximum of 20 passages.
The plates were incubated overnight at 37° C., 5% CO2 to enable the cells to attach and grow.
The working concentration of TNFα was 1,000 pg/ml. A twenty times working concentration of TNFα was 20,000 pg/ml was prepared using EGM-5. The test compounds, DMSO negative vehicle control and staurosporine positive control were diluted 20× using EGM-5. Ten μL each of the compounds, DMSO and staurosporine were combined with 180 μl of medium containing HUVEC cells. Immediately following the addition of the compounds, 10 μl of […] TNFα was added to the wells. Medium without TNFα was added to the control wells. […] The plates were incubated at 37° C. in 5% CO2 in humidified conditions overnight (18-24 hours) for TNFα.
At the completion of the stimulation, the plates were spun at 2000 rpm for 10 minutes. The supernatants from each well were transferred to fresh plates for MCP1 analysis by ELISA.
[…] were determined with PharMingen's OptEIA™ MCP1 Kit (PharMingen) according to manufacturer's instructions.
The data is represented as a percentage of MCP1 inhibition by the following formula: % MCP1 inhibition=100−(AVG treatment/AVG DMSO control)*100.
On the technique in general: An ELISA detects its analyte on a solid surface through an enzyme-linked reagent.

Assay [3] relates to IL-12 on macrophages. In words: Inhibition of IL-12 release from stimulated macrophages. The note with it: LPS and IFN-γ stimulated primary macrophages, ELISA. The assay is classed as cell-based, mouse. How it is done: Peritoneal exudate macrophages were isolated by peritoneal lavage with ice-cold sterile physiological saline 24 hours after intraperitoneal injection of BALB/c mice with 0.5 mL of sterile Zymosan A (1 mg/0.5 mL 0.9% saline). […] Murine primary macrophage are activated following incubation with LPS in the presence of sub-optimal doses of IFN-γ. Upon activation, macrophages participate actively in the onset of inflammation by releasing bioactive molecules that amplify the initial inflammatory response. […] Briefly, IL-12 levels in the supernatants from stimulated macrophages were determined with PharMingen's OptEIA™ ELISA set developed using an anti-mouse IL-12 antibody pair and mouse rIL-12 standard (PharMingen). Maxisorp™ F16 multiwell strips (Nunc, Roskilde, Denmark) were coated with anti-mouse IL-12 capture Ab (at recommended concentration) in 0.1 M NaHCO3, pH 9.5, 100 μL/well, overnight at 4° C. […] Plates were washed 3× with PBST and duplicate samples (100 μL/well) or standards (100 μL/well) in diluent buffer were incubated for 2 h. Plates were washed five times with PBST and incubated with biotinylated anti-mouse IL-12 and avidin-horseradish peroxidase (HRP) conjugate (at concentrations recommended by the manufacturer) for 1 h. […] Peritoneal exudate macrophages were isolated by peritoneal lavage with ice-cold sterile physiological saline 24 hours after intraperitoneal injection of BALB/c mice with 0.3 ml of sterile zymosan A (1 mg/0.5 mL 0.9% saline). […] All treatments were replicated six times. Cells were incubated for an additional 24 hours, and cell free culture supernatants from each well were collected for NO and cytokine determination. The remaining cells were stained with crystal violet to determine effect of the compound on cell survival.

The subject of assay [4] is macrophages. Briefly: Survival of macrophages. The note with it: stimulated primary macrophages. The assay is classed as cell-based, mouse.

In the case of `COc1cc2sc(-c3c(NCCN(C)C)n[nH]c3N)nc2cc1F` [N^3-(2-Dimethylaminoethyl)-4-(5-fluoro-6-methoxybenzothiazole)-1H-pyrazole-3,5-diamine], the IC50 in assay [1], in assay [2], in assay [3] and in assay [4] was over 25 µM throughout.

As to `COc1cc2sc(-c3c(N4CCNCC4)n[nH]c3N)nc2cc1F` [4-(5-Fluoro-6-methoxybenzothiazole)-5-piperizin-1-yl-2H-pyrazol-3-ylamine], the IC50 is 17.5 µM in assay [1], 10.9 µM in assay [2], 23.4 µM in assay [3] and over 25 µM in assay [4].
